According to the supplement of paper PMC10307832:

Columns and labels:
Test in all cases: relative viability (nuclei count vs DMSO), 5 days (fraction); higher = more cells survive
kb NB 142-70 = compound: C1CSC2=C(C(=O)N1)SC3=C2C=C(C=C3)O [kb NB 142-70]
Summary of the method: (§1)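 Viability was read as treated-well nuclei divided by vehicle-well nuclei, using the median across plates. Lung cancer cell lines in 1536-well plates were kept overnight at 37 °C, pinned with five √10-spaced library-drug doses, and after 5 days were Hoechst-stained, imaged at 4× and counted in MetaXpress. Plates passed only with control CV below 25% and at least one doubling.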

[1] = compound: NCC(=O)Nc1ccc(-n2nc(C(F)(F)F)cc2-c2ccc3c(ccc4ccccc43)c2)cc1
Summary of the method: as §1

[2] = compound: C1CSC2=C(C(=O)N1)SC3=C2C=C(C=C3)O [kb NB 142-70] + CCNC(=O)c1noc(-c2cc(C(C)C)c(O)cc2O)c1-c1ccc(CN2CCOCC2)cc1 [Luminespib] (partner 0.01 µM)
Summary of the method: (§2)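 After 5 days of treatment, lung cancer cells in 1536-well plates were fixed and stained in a single step (final 0.05% Triton X-100, 1% formaldehyde, 1 ug/ml Hoechst) and their nuclei counted on 4× images. Treatment had been applied by pin tool the day after seeding as one drug alone or as a fixed anchor-drug dose with five library-drug doses (not always all listed) in √10 steps. Relative viability is the nuclei count of treated wells divided by that of vehicle wells, and values are medians of duplicate plates.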

kb NB 142-70 + Foretinib = compound: C1CSC2=C(C(=O)N1)SC3=C2C=C(C=C3)O [kb NB 142-70] + COc1cc2c(Oc3ccc(NC(=O)C4(C(=O)Nc5ccc(F)cc5)CC4)cc3F)ccnc2cc1OCCCN1CCOCC1 [Foretinib] (partner 0.25 µM)
Summary of the method: as §2

kb NB 142-70 + OSI-027 = compound: C1CSC2=C(C(=O)N1)SC3=C2C=C(C=C3)O [kb NB 142-70] + COc1cccc2cc(-c3nc([C@H]4CC[C@H](C(=O)O)CC4)n4ncnc(N)c34)[nH]c12 [OSI-027] (partner 0.5 µM)
Summary of the method: as §2

[3] = compound: C1CSC2=C(C(=O)N1)SC3=C2C=C(C=C3)O [kb NB 142-70] + Cc1cc(Nc2cc(N3CCN(C)CC3)nc(Sc3ccc(NC(=O)C4CC4)cc3)n2)n[nH]1 [Tozasertib] (partner 0.1 µM)
Summary of the method: as §2

kb NB 142-70 + Dasatinib = compound: C1CSC2=C(C(=O)N1)SC3=C2C=C(C=C3)O [kb NB 142-70] + Cc1nc(Nc2ncc(C(=O)Nc3c(C)cccc3Cl)s2)cc(N2CCN(CCO)CC2)n1 [Dasatinib] (partner 0.075 µM)
Summary of the method: as §2

[4] = compound: C1CSC2=C(C(=O)N1)SC3=C2C=C(C=C3)O [kb NB 142-70] + N=C(N)NC(=N)NCCc1ccccc1 [Phenformin] (partner 250 µM)
Summary of the method: as §2

[5] = compound: NCC(=O)Nc1ccc(-n2nc(C(F)(F)F)cc2-c2ccc3c(ccc4ccccc43)c2)cc1 + CCNC(=O)c1noc(-c2cc(C(C)C)c(O)cc2O)c1-c1ccc(CN2CCOCC2)cc1 [Luminespib] (partner 0.01 µM)
Summary of the method: as §2

[6] = compound: NCC(=O)Nc1ccc(-n2nc(C(F)(F)F)cc2-c2ccc3c(ccc4ccccc43)c2)cc1 + COc1cc2c(Oc3ccc(NC(=O)C4(C(=O)Nc5ccc(F)cc5)CC4)cc3F)ccnc2cc1OCCCN1CCOCC1 [Foretinib] (partner 0.25 µM)
Summary of the method: as §2

[7] = compound: NCC(=O)Nc1ccc(-n2nc(C(F)(F)F)cc2-c2ccc3c(ccc4ccccc43)c2)cc1 + COc1cccc2cc(-c3nc([C@H]4CC[C@H](C(=O)O)CC4)n4ncnc(N)c34)[nH]c12 [OSI-027] (partner 0.5 µM)
Summary of the method: as §2

[8] = compound: NCC(=O)Nc1ccc(-n2nc(C(F)(F)F)cc2-c2ccc3c(ccc4ccccc43)c2)cc1 + Cc1cc(Nc2cc(N3CCN(C)CC3)nc(Sc3ccc(NC(=O)C4CC4)cc3)n2)n[nH]1 [Tozasertib] (partner 0.1 µM)
Summary of the method: as §2

[9] = compound: NCC(=O)Nc1ccc(-n2nc(C(F)(F)F)cc2-c2ccc3c(ccc4ccccc43)c2)cc1 + Cc1nc(Nc2ncc(C(=O)Nc3c(C)cccc3Cl)s2)cc(N2CCN(CCO)CC2)n1 [Dasatinib] (partner 0.075 µM)
Summary of the method: as §2

[10] = compound: NCC(=O)Nc1ccc(-n2nc(C(F)(F)F)cc2-c2ccc3c(ccc4ccccc43)c2)cc1 + N=C(N)NC(=N)NCCc1ccccc1 [Phenformin] (partner 250 µM)
Summary of the method: as §2

NCI-H1623
relative viability (kb NB 142-70; 0.1 µM): 0.98 | relative viability (kb NB 142-70; 1 µM): 1.01 | relative viability (kb NB 142-70; 3.162 µM): 0.951 | relative viability ([1]; 0.02 µM): 1.05 | relative viability ([1]; 0.06325 µM): 1.02 | relative viability ([1]; 0.2 µM): 0.943 | relative viability ([1]; 0.6325 µM): 0.923 | relative viability ([1]; 2 µM): 1.01 | relative viability ([2]; first compound 0.1 µM): 0.427 | relative viability ([2]; first compound 1 µM): 0.476 | relative viability ([2]; first compound 3.162 µM): 0.594 | relative viability (kb NB 142-70 + Foretinib; first compound 0.1 µM): 0.932 | relative viability (kb NB 142-70 + Foretinib; first compound 1 µM): 0.843 | relative viability (kb NB 142-70 + Foretinib; first compound 3.162 µM): 0.722 | relative viability (kb NB 142-70 + OSI-027; first compound 0.1 µM): 0.399 | relative viability (kb NB 142-70 + OSI-027; first compound 1 µM): 0.375 | relative viability (kb NB 142-70 + OSI-027; first compound 3.162 µM): 0.404 | relative viability ([3]; first compound 0.1 µM): 0.441 | relative viability ([3]; first compound 1 µM): 0.433 | relative viability ([3]; first compound 3.162 µM): 0.379 | relative viability (kb NB 142-70 + Dasatinib; first compound 0.1 µM): 0.552 | relative viability (kb NB 142-70 + Dasatinib; first compound 1 µM): 0.558 | relative viability (kb NB 142-70 + Dasatinib; first compound 3.162 µM): 0.428 | relative viability ([4]; first compound 0.1 µM): 0.599 | relative viability ([4]; first compound 1 µM): 0.617 | relative viability ([4]; first compound 3.162 µM): 0.591 | relative viability ([5]; first compound 0.02 µM): 0.552 | relative viability ([5]; first compound 0.06325 µM): 0.425 | relative viability ([5]; first compound 0.2 µM): 0.457 | relative viability ([5]; first compound 0.6325 µM): 0.661 | relative viability ([5]; first compound 2 µM): 0.558 | relative viability ([6]; first compound 0.02 µM): 1.02 | relative viability ([6]; first compound 0.06325 µM): 0.935 | relative viability ([6]; first compound 0.2 µM): 0.77 | relative viability ([6]; first compound 0.6325 µM): 0.84 | relative viability ([6]; first compound 2 µM): 0.923 | relative viability ([7]; first compound 0.02 µM): 0.439 | relative viability ([7]; first compound 0.06325 µM): 0.475 | relative viability ([7]; first compound 0.2 µM): 0.395 | relative viability ([7]; first compound 0.6325 µM): 0.494 | relative viability ([7]; first compound 2 µM): 0.432 | relative viability ([8]; first compound 0.02 µM): 0.407 | relative viability ([8]; first compound 0.06325 µM): 0.429 | relative viability ([8]; first compound 0.2 µM): 0.464 | relative viability ([8]; first compound 0.6325 µM): 0.396 | relative viability ([8]; first compound 2 µM): 0.488 | relative viability ([9]; first compound 0.02 µM): 0.544 | relative viability ([9]; first compound 0.06325 µM): 0.676 | relative viability ([9]; first compound 0.2 µM): 0.531 | relative viability ([9]; first compound 0.6325 µM): 0.488 | relative viability ([9]; first compound 2 µM): 0.528 | relative viability ([10]; first compound 0.02 µM): 0.604 | relative viability ([10]; first compound 0.06325 µM): 0.671 | relative viability ([10]; first compound 0.2 µM): 0.6 | relative viability ([10]; first compound 0.6325 µM): 0.577 | relative viability ([10]; first compound 2 µM): 0.555
